The text below walks through data of article PMC9966370, “Biological Evaluation and In Vitro Characterization of ADME Profile of In-House Pyrazolo[3,4-d]pyrimidines as Dual Tyrosine Kinase Inhibitors Active against Glioblastoma Multiforme” (Pharmaceutics, 2023).

Like-named read-outs stand apart in the source and are kept apart here. A value given as a limit tells only on which side of the number the result lay.

A short description of data set [1]: PAMPA, GI permeability. It is filed as in vitro ADME. As to conditions: RT; for GI membrane retention (MR%): 5 h, pH 7.4; for Papp at 5 h, 500 µM: pH 7.4, PAMPA. On the procedure:
(§1) UV/LC–MS chromatographic analyses were carried out using an Agilent 1100 LC/MSD VL system (G1946C) purchased from Agilent Technologies (Palo Alto, CA, USA). […] The analysis began with 5% B (t = 0–1 min), increased to 95% (t = 1–10 min), maintained at 95% (t = 10–19 min), and finally returned to 5% […]. The analyses were performed at a flow rate of 0.6 mL/min, UV detection was monitored at 254 nm, and spectra were acquired over the scan range of m/z 100–1000 in both positive and negative modes.
(§2) The DMSO stock of each compound was diluted with phosphate buffer (PBS 25 mM, pH 7.4) to a final concentration of 500 µM in order to obtain the “donor”. For GI and BBB permeability, filters were coated with 10 µL of 1% w/v dodecane phosphatidylcholine solution or 5 µL of 10% w/v CHCl3/dodecane brain polar lipid solution. The donor (150 µL) was poured over the artificial membranes on the filter plate. DMSO/PBS (300 µL, 1:1 v/v) was then added to the acceptor wells. After assembling the sandwich plates, the experiments were run for 5 h at room temperature (RT). Lastly, the amount of compound passed though the artificial membranes was determined using the UV/LC–MS method described above. Apparent permeability (Papp) and membrane retention (MR%) were determined as previously described.

Data set [2] has as its system U-87 GBM cell line. The data set can be described thus: antiproliferative activity, MTT assay, U-87. Type of data set: cell-based. As to conditions: Homo sapiens, 72 h treatment. On the procedure:
(§3) Cell-based assays were performed using four GBM cell lines, i.e., U-87, LN18, LN229, and DBTRG, cultured in Dulbecco’s modified Eagle medium (DMEM) (U-87, LN18, and LN229) or Roswell Park Memorial Institute medium (RPMI 1640) (DBTRG). Both media were implemented with 10% fetal bovine serum (FBS), 2 mM L-glutamine, and 10,000 units/mL penicillin/streptomycin at 37 °C in a 5% CO2 atmosphere. […] The final concentration of DMSO used never exceeded 0.5% v/v, and appropriate controls were always performed in each assay. […] These were cultured in DMEM supplemented with 10% FBS, 2 mM L-glutamine, and 10,000 units/mL penicillin/streptomycin at 37 °C in a 5% CO2 atmosphere. The protocol used to assess the cytotoxic effect on both healthy cell lines was the same described above for the antiproliferative assay. For both the antiproliferative and the cytotoxic assays, 3-(4,5-dimethylthiazol-2-yl)-2,5-diphenyltetrazolium bromide (MTT) was used to assess cell viability as previously described. Briefly, 150 μL of MTT (5 mg/mL in FBS-free culture medium) was added to each well, and the plates incubated for 4 h in a 5% CO2 atmosphere at 37 °C. Afterward, formazan violet crystals were solubilized in 150 μL of isopropanol, and the absorbance was quantified at 570 nm using a Multiskan SkyHigh Microplate Spectrophotometer (ThermoFisher, Waltham, MA, USA). Cell viability was expressed as a percentage of DMSO-treated cells (controls), taken as 100%. […] To support MTT data, cytotoxicity assays was always paralleled by a careful observation of cells under a phase-contrast light microscope, as described in USP 28 (United States Pharmacopeia edition 2005) as an alternative method. This analysis was performed by an expert operator blind to the treatment, and exemplificative photos representing the effects of compound 5 on LN229 and DBTRG cells are reported in Figures S2 and S3 (Supplementary Materials).
On the technique in general: Formazan colour is commonly taken as a measure of viable cells.

Data set [3] in a line: PAMPA, BBB permeability. Type of data set: in vitro ADME. As to conditions: RT; for BBB membrane retention (MR%): 5 h, pH 7.4; for Papp at 5 h, 500 µM: pH 7.4, PAMPA. On the procedure: as §1, §2
Background: In PAMPA a lipid-coated filter parts donor from acceptor wells.

The subject of data set [4] is LN229 GBM cell line. The data set can be described thus: antiproliferative activity, MTT assay, LN229. The following applies: Homo sapiens, LN-229, 72 h treatment. It is filed as cell-based. The procedure:
as §3

Data set [5] concerns LN18 GBM cell line. In words: antiproliferative activity, MTT assay, LN18. Type of data set: cell-based. The following applies: Homo sapiens, LN-18, 72 h treatment. On the procedure: as §3
Data set [6] concerns DBTRG GBM cell line. In words: antiproliferative activity, MTT assay, DBTRG. It is filed as cell-based. As to conditions: Homo sapiens, 72 h treatment. On the procedure: as §3
Data set [7] can be described thus: metabolic stability assay in human liver microsomes. As to conditions: HLM 0.2 mg/mL, NADPH, 1 h, 37 °C. It is filed as in vitro ADME. On the procedure: as §1
Each DMSO compound solution was incubated for 1 h at 37 °C in the presence of 500 µL of PBS (25 mM, pH 7.4), human liver microsomal (HLM) proteins (0.2 mg/mL), and 10 mM NADPH solution in MgCl2 (48 mM). The reactions were stopped with 1.0 mL of cold ACN. The samples were centrifuged (4000 rpm for 10 min), and the supernatants were collected, dried under N2 flow, and suspended in 100 µL of methanol (MeOH). Parent drugs and metabolites were determined using the previously described HPLC/UV–MS method. The percentage metabolic stability was calculated by comparing the metabolized and unmetabolized compounds.
A general note: Liver microsomes are vesicles of endoplasmic reticulum, rich in cytochrome P450 enzymes.

The target of data set [8] is T1, c-Src (Homo sapiens, UniProt P12931).
T1 construct: purchased Promega (Madison, WI, USA)
In words: cell-free enzymatic assay (ADP-Glo), c-Src. Type of data set: biochemical. The following applies: 100 µM ATP, 500 µM Src-peptide; read-out: c-Src Ki.
Procedure: The reactions were carried out in accordance with the manufacturer’s instructions, with minor modifications. The experiments were run using all substrates at least twice the concentration of apparent Km. […] All reactions were run out at 30 °C for 10 min with 10–50 ng of enzyme and 10 µL of 10% DMSO. Protein low-binding tubes were used to prevent peptide adsorption onto the plastic surface. To detect kinase activity, the ADP-Glo Kinase Assay (Promega, Madison, WI, USA) was used according to the manufacturer’s protocol. Into white 384-well plates, reactions were stopped for 50 min at RT by adding 10 µL of ADP-Glo Reagent (Promega, Madison, WI, USA). After 30 min, 20 µL of Detection Reagent (Promega, Madison, WI, USA) was added, and the reaction was read using a GloMax Discover microplate reader (Promega, Madison, WI, USA). […] Compounds analyzed were considered to act as ATP-competitive inhibitors.

Data set [9] in a line: cytotoxicity on nontumoral healthy cells, MTT assay, FIBRO 2-93. Type of data set: cell-based, human. As to conditions: human, FIBRO 2-93 healthy fibroblasts, 72 h treatment, MTT.
Procedure: (§4) The protocol used to assess the cytotoxic effect on both healthy cell lines was the same described above for the antiproliferative assay. For both the antiproliferative and the cytotoxic assays, 3-(4,5-dimethylthiazol-2-yl)-2,5-diphenyltetrazolium bromide (MTT) was used to assess cell viability as previously described [20]. […] Afterward, formazan violet crystals were solubilized in 150 μL of isopropanol, and the absorbance was quantified at 570 nm using a Multiskan SkyHigh Microplate Spectrophotometer (ThermoFisher, Waltham, MA, USA). Cell viability was expressed as a percentage of DMSO-treated cells (controls), taken as 100%.
Data set [10] can be described thus: cytotoxicity on nontumoral healthy cells, MTT assay, HaCaT. It is filed as cell-based, human. As to conditions: human, HaCaT keratinocytes, 72 h treatment.
Procedure: as §4
For data set [11] the following is noted: HLM, previously published, cited from earlier work.
Data set [12] deals with U-87 GBM cell line. The following applies: previously published; cited from earlier work.

T1 sequence (P12931 whole entry): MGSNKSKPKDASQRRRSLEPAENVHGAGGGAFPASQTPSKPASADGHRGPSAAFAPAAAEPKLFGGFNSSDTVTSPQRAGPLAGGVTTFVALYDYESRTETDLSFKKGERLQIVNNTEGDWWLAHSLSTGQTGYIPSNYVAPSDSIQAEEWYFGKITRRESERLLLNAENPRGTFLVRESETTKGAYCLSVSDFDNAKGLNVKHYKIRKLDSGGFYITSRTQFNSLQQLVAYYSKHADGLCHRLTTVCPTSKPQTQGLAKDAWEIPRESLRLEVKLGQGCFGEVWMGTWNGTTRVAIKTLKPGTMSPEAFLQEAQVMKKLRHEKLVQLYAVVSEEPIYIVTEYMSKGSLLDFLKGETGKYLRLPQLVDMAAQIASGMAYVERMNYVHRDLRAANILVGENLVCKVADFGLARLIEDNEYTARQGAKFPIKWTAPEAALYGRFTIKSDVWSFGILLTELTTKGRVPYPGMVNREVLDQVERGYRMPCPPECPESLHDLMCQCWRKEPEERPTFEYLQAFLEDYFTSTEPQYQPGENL

The term Papp denotes the rate of passage across a membrane or cell layer, normalised by area and donor concentration. Higher therefore signals ready permeation. Broadly, the IC50 is the concentration that gives 50% inhibition. The term melting point denotes the temperature of the solid-liquid transition. The molecule `ClC(Cn1ncc2c(NC3CC3)ncnc21)c1ccccc1` (stereo not shown) [Compound 2] yielded a melting point of 194 to 195 °C. Moreover, in data set [1], the “GI membrane retention (MR%)” value was 34.7% and the apparent permeability coefficient (Papp) at 5 h, 500 µM stood at 6.46 ×10⁻⁶ cm/s. This molecule gave a half-maximal inhibitory concentration (IC50) in [2] greater than 100 µM. Moreover, in data set [3], the “BBB membrane retention (MR%)” value came out at 55.0% and the apparent permeability (Papp) at 5 h, 500 µM amounted to 4.96 ×10⁻⁶ cm/s. In data set [4], this molecule gave an IC50 greater than 100 µM. Besides, the half-maximal inhibitory concentration (IC50) in data set [5] is 49.4 ± 2.8 µM. For the same molecule, the concentration for half-maximal inhibition (IC50) in data set [6] was greater than 100 µM.

With `Fc1ccccc1CNc1ncnc2c1cnn2CC(Cl)c1ccccc1` (stereo not shown) [Compound 3], in data set [1], the “GI membrane retention (MR%)” value came out at 7.3%. The Papp at 5 h, 500 µM in [1] and in data set [3] was no less than 10 ×10⁻⁶ cm/s throughout. The IC50 in data set [2] is 40.2 ± 3.6 µM; in data set [4], 29.2 ± 2.6 µM; in [5] it was 27.5 ± 2.1 µM; in data set [6], 15.1 ± 2.1 µM. For the same molecule, the “Metabolic Stability” value in [7] is 80.4%. The “BBB membrane retention (MR%)” value in data set [3] was 4.8%.

`Fc1ccc(CNc2ncnc3c2cnn3CC(Cl)c2ccccc2)cc1` (stereo not shown) [Compound 4] had a melting point of 161 to 162 °C. In data set [1], the “GI membrane retention (MR%)” value worked out at 7.8% and the apparent permeability (Papp) at 5 h, 500 µM was no less than 10 ×10⁻⁶ cm/s. Besides, in data set [2], half-maximal inhibition (IC50) was put at 29.8 ± 2.5 µM. For the same molecule, in [3], the “BBB membrane retention (MR%)” value was found to be 2.1% and the Papp at 5 h, 500 µM is no less than 10 ×10⁻⁶ cm/s. This molecule also displayed an IC50 in data set [4] greater than 100 µM. In data set [5], this molecule had an IC50 of 9 ± 1.2 µM. Besides, 68.5 ± 3.8 µM corresponded to half-maximal inhibition in [6] (IC50).

Usually Ki stands for the dissociation constant of the complex between target and ligand, obtained from inhibition or displacement. `Fc1ccc(C(Cl)Cn2ncc3c(NCc4ccccc4F)ncnc32)cc1` (stereo not shown) [Compound 6]: the “GI membrane retention (MR%)” value in [1] is 10.1%. The Papp at 5 h, 500 µM in data set [1] and in data set [3] was no less than 10 ×10⁻⁶ cm/s throughout. Besides, the IC50 turned out to be 32.4 ± 2.7 µM in data set [2], 33.8 ± 2.3 µM in [4], 11.7 ± 1.5 µM in data set [5] and 20.1 ± 1.8 µM in data set [6]. For the same molecule, in data set [7], the “Metabolic Stability” value was found to be 69.9%. In addition, the Ki in data set [8] came out at 0.07 ± 0.01 µM. The “BBB membrane retention (MR%)” value in data set [3] is 4.4%.

By CC50 is commonly meant the concentration at which the toxic effect on the cells reaches its halfway point. Higher therefore signals better tolerance by the cells. Regarding `Fc1ccc(CNc2ncnc3c2cnn3CC(Cl)c2ccc(Cl)cc2)cc1` (stereo not shown) [Compound 7], the 50% cytotoxic concentration (CC50) at 72 h in data set [9] turned out to be 28.6 ± 3.7 µM; in data set [10], 37.8 ± 4.9 µM. Moreover, the IC50 in [2] is 22.7 ± 2.3 µM; in data set [4], 7.1 ± 1.1 µM; in data set [5], 3.9 ± 0.6 µM; in data set [6], 14.6 ± 0.9 µM. Moreover, in data set [8], the Ki was found to be 0.8 ± 0.09 µM. Further, the “BBB membrane retention (MR%)” value in [3] is reported as 4.4%. The apparent permeability (Papp) at 5 h, 500 µM in [3] is no less than 10 ×10⁻⁶ cm/s. For the same molecule, the “Metabolite Formation M1” value in data set [11] (M1 = M − HCl + O) is reported as 4%. Also, the “Metabolite Formation M3” value in [11] (M3 = M—group bearing NH moiety in R2) is given as 2%.

Consider `CSc1nc(NCCc2ccccc2)c2cnn(CC(Cl)c3ccccc3)c2n1` (stereo not shown) [Compound 8], for which, in data set [1], the “GI membrane retention (MR%)” value is listed as 42.7%. Further, the apparent permeability (Papp) at 5 h, 500 µM worked out at 3.2 ×10⁻⁶ cm/s in data set [1] and 5.96 ×10⁻⁶ cm/s in data set [3]. In addition, the IC50 in data set [2] turned out to be 37.9 ± 3.9 µM; in data set [4], 26.1 ± 2.8 µM; in data set [5], 5.9 ± 1.1 µM; in data set [6] it was 31.2 ± 2.5 µM. In addition, in data set [3], the “BBB membrane retention (MR%)” value was 18.3%.

`Fc1cccc(CNc2ncnc3c2cnn3CCc2ccccc2)c1` [Compound 11] displayed a melting point of 113 to 114 °C. In [1], the “GI membrane retention (MR%)” value is 6.7% and the apparent permeability coefficient (Papp) at 5 h, 500 µM is no less than 10 ×10⁻⁶ cm/s. In data set [2], this molecule gave a half-inhibitory concentration (IC50) of 56.9 ± 3.3 µM. For the same molecule, in data set [3], the “BBB membrane retention (MR%)” value worked out at 5.2% and the Papp at 5 h, 500 µM was no less than 10 ×10⁻⁶ cm/s. The same molecule yielded a concentration for half-maximal inhibition (IC50) in data set [4] of 58.4 ± 3 µM. The molecule also showed an IC50 in data set [5] of 34.1 ± 2.9 µM. In [6], this molecule showed an IC50 of 69.2 ± 3.9 µM.

As for `ClC(Cn1ncc2c(Nc3ccccc3)ncnc21)c1ccc(Br)cc1` (stereo not shown) [Compound 12], the IC50 in data set [12] was 14 ± 1.9 µM; in data set [4], greater than 100 µM; in [5], greater than 100 µM; in data set [6], greater than 100 µM. Besides, the “Metabolic Stability” value in data set [11] is listed as no less than 90%.
